# Measured values from ChEMBL document CHEMBL4138175, “Newly designed organotin(IV) carboxylates with peptide linkage: Synthesis, structural elucidation, physicochemical characterizations and pharmacological investigations” (Eur J Med Chem, 2018).
# Activity calls are given as the source filed them. The rule behind the calls is not given here.
# Tested on: NCI-H157
# Test: Cytotoxicity against human NCI-H157 cells at 100 uM after 48 hrs by sulforhodamine B assay
# Format: functional
row,Substance,Activity [%]
1,"(2,9-Dimethyl-1,10-Phenanthroline) trimethylstannyl 2-(4-methoxy-2-nitrophenylcarbamo-yl)benzoate",52.8

# Tested on: NCI-H157
# Test: Cytotoxicity against human NCI-H157 cells at 10 uM after 48 hrs by sulforhodamine B assay
# Format: functional
row,Substance,Activity [%]
1,"(2,9-Dimethyl-1,10-Phenanthroline) trimethylstannyl 2-(4-methoxy-2-nitrophenylcarbamo-yl)benzoate",50.3

# Tested on: NCI-H157
# Test: Cytotoxicity against human NCI-H157 cells at 1 uM after 48 hrs by sulforhodamine B assay
# Format: functional
row,Substance,Activity [%]
1,"(2,9-Dimethyl-1,10-Phenanthroline) trimethylstannyl 2-(4-methoxy-2-nitrophenylcarbamo-yl)benzoate",48.6

# Tested on: NCI-H157
# Test: Cytotoxicity against human NCI-H157 cells at 0.1 uM after 48 hrs by sulforhodamine B assay
# Format: functional
row,Substance,Activity [%]
1,"(2,9-Dimethyl-1,10-Phenanthroline) trimethylstannyl 2-(4-methoxy-2-nitrophenylcarbamo-yl)benzoate",45.5

# Tested on: Leishmania major
# Test: Antileishmanial activity against Leishmania major promastigotes at 100 uM after 72 hrs by MTT assay relative to control
# Format: functional
row,Substance,Activity [%]
1,"(2,9-Dimethyl-1,10-Phenanthroline) trimethylstannyl 2-(4-methoxy-2-nitrophenylcarbamo-yl)benzoate",62.1

# Tested on: Leishmania major
# Test: Antileishmanial activity against Leishmania major promastigotes at 10 uM after 72 hrs by MTT assay relative to control
# Format: functional
row,Substance,Activity [%]
1,"(2,9-Dimethyl-1,10-Phenanthroline) trimethylstannyl 2-(4-methoxy-2-nitrophenylcarbamo-yl)benzoate",59.5

# Tested on: Leishmania major
# Test: Antileishmanial activity against Leishmania major promastigotes at 1 uM after 72 hrs by MTT assay relative to control
# Format: functional
row,Substance,Activity [%]
1,"(2,9-Dimethyl-1,10-Phenanthroline) trimethylstannyl 2-(4-methoxy-2-nitrophenylcarbamo-yl)benzoate",56.7

# Tested on: Leishmania major
# Test: Antileishmanial activity against Leishmania major promastigotes at 0.1 uM after 72 hrs by MTT assay relative to control
# Format: functional
row,Substance,Activity [%]
1,"(2,9-Dimethyl-1,10-Phenanthroline) trimethylstannyl 2-(4-methoxy-2-nitrophenylcarbamo-yl)benzoate",52.1

# Tested on: Klebsiella pneumoniae
# Test: Antibacterial activity against Klebsiella pneumoniae assessed as zone of inhibition after 24 to 48 hrs by well diffusion method
# Format: functional
row,Substance,inhibition zone (IZ)
1,"(2,9-Dimethyl-1,10-Phenanthroline) trimethylstannyl 2-(4-methoxy-2-nitrophenylcarbamo-yl)benzoate",inactive

# Tested on: Streptococcus pyogenes
# Test: Antibacterial activity against Streptococcus pyogenes assessed as zone of inhibition after 24 to 48 hrs by well diffusion method
# Format: functional
row,Substance,inhibition zone (IZ) [mm]
1,"(2,9-Dimethyl-1,10-Phenanthroline) trimethylstannyl 2-(4-methoxy-2-nitrophenylcarbamo-yl)benzoate",5

# Tested on: Staphylococcus epidermidis
# Test: Antibacterial activity against Staphylococcus epidermidis assessed as zone of inhibition after 24 to 48 hrs by well diffusion method
# Format: functional
row,Substance,inhibition zone (IZ) [mm]
1,"(2,9-Dimethyl-1,10-Phenanthroline) trimethylstannyl 2-(4-methoxy-2-nitrophenylcarbamo-yl)benzoate",16

# Tested on: Staphylococcus aureus
# Test: Antibacterial activity against Staphylococcus aureus assessed as zone of inhibition after 24 to 48 hrs by well diffusion method
# Format: functional
row,Substance,inhibition zone (IZ)
1,"(2,9-Dimethyl-1,10-Phenanthroline) trimethylstannyl 2-(4-methoxy-2-nitrophenylcarbamo-yl)benzoate",inactive

# Tested on: Serratia marcescens
# Test: Antibacterial activity against Serratia marcescens assessed as zone of inhibition after 24 to 48 hrs by well diffusion method
# Format: functional
row,Substance,inhibition zone (IZ) [mm]
1,"(2,9-Dimethyl-1,10-Phenanthroline) trimethylstannyl 2-(4-methoxy-2-nitrophenylcarbamo-yl)benzoate",15.7

# Tested on: Pseudomonas aeruginosa
# Test: Antibacterial activity against Pseudomonas aeruginosa assessed as zone of inhibition after 24 to 48 hrs by well diffusion method
# Format: functional
row,Substance,inhibition zone (IZ) [mm]
1,"(2,9-Dimethyl-1,10-Phenanthroline) trimethylstannyl 2-(4-methoxy-2-nitrophenylcarbamo-yl)benzoate",23

# Tested on: Escherichia coli
# Test: Antibacterial activity against Escherichia coli assessed as zone of inhibition after 24 to 48 hrs by well diffusion method
# Format: functional
row,Substance,inhibition zone (IZ) [mm]
1,"(2,9-Dimethyl-1,10-Phenanthroline) trimethylstannyl 2-(4-methoxy-2-nitrophenylcarbamo-yl)benzoate",1.53

# Tested on: Klebsiella pneumoniae
# Test: Antibacterial activity against Klebsiella pneumoniae assessed as zone of inhibition by measuring activity index after 24 to 48 hrs by well diffusion method relative to penicillin G
# Format: functional, organism-based
row,Substance,Activity_index
1,"(2,9-Dimethyl-1,10-Phenanthroline) trimethylstannyl 2-(4-methoxy-2-nitrophenylcarbamo-yl)benzoate",inactive

# Tested on: Staphylococcus epidermidis
# Test: Antibacterial activity against Staphylococcus epidermidis assessed as zone of inhibition by measuring activity index after 24 to 48 hrs by well diffusion method relative to tetracycline
# Format: functional, organism-based
row,Substance,Activity index
1,"(2,9-Dimethyl-1,10-Phenanthroline) trimethylstannyl 2-(4-methoxy-2-nitrophenylcarbamo-yl)benzoate",1.6

# Tested on: Staphylococcus epidermidis
# Test: Antibacterial activity against Staphylococcus epidermidis assessed as zone of inhibition by measuring activity index after 24 to 48 hrs by well diffusion method relative to amoxicillin
# Format: functional, organism-based
row,Substance,Activity index
1,"(2,9-Dimethyl-1,10-Phenanthroline) trimethylstannyl 2-(4-methoxy-2-nitrophenylcarbamo-yl)benzoate",8

# Tested on: Staphylococcus aureus
# Test: Antibacterial activity against Staphylococcus aureus assessed as zone of inhibition by measuring activity index after 24 to 48 hrs by well diffusion method relative to tetracycline
# Format: functional, organism-based
row,Substance,Activity_index
1,"(2,9-Dimethyl-1,10-Phenanthroline) trimethylstannyl 2-(4-methoxy-2-nitrophenylcarbamo-yl)benzoate",inactive

# Tested on: Staphylococcus aureus
# Test: Antibacterial activity against Staphylococcus aureus assessed as zone of inhibition by measuring activity index after 24 to 48 hrs by well diffusion method relative to penicillin G
# Format: functional, organism-based
row,Substance,Activity_index
1,"(2,9-Dimethyl-1,10-Phenanthroline) trimethylstannyl 2-(4-methoxy-2-nitrophenylcarbamo-yl)benzoate",inactive

# Tested on: Staphylococcus aureus
# Test: Antibacterial activity against Staphylococcus aureus assessed as zone of inhibition by measuring activity index after 24 to 48 hrs by well diffusion method relative to ampicillin
# Format: functional, organism-based
row,Substance,Activity_index
1,"(2,9-Dimethyl-1,10-Phenanthroline) trimethylstannyl 2-(4-methoxy-2-nitrophenylcarbamo-yl)benzoate",inactive

# Tested on: Staphylococcus aureus
# Test: Antibacterial activity against Staphylococcus aureus assessed as zone of inhibition by measuring activity index after 24 to 48 hrs by well diffusion method relative to amoxicillin
# Format: functional, organism-based
row,Substance,Activity_index
1,"(2,9-Dimethyl-1,10-Phenanthroline) trimethylstannyl 2-(4-methoxy-2-nitrophenylcarbamo-yl)benzoate",inactive

# Tested on: Serratia marcescens
# Test: Antibacterial activity against Serratia marcescens assessed as zone of inhibition by measuring activity index after 24 to 48 hrs by well diffusion method relative to penicillin G
# Format: functional
row,Substance,Activity index
1,"(2,9-Dimethyl-1,10-Phenanthroline) trimethylstannyl 2-(4-methoxy-2-nitrophenylcarbamo-yl)benzoate",1.96

# Tested on: Serratia marcescens
# Test: Antibacterial activity against Serratia marcescens assessed as zone of inhibition by measuring activity index after 24 to 48 hrs by well diffusion method relative to ampicillin
# Format: functional
row,Substance,Activity index
1,"(2,9-Dimethyl-1,10-Phenanthroline) trimethylstannyl 2-(4-methoxy-2-nitrophenylcarbamo-yl)benzoate",1.96

# Tested on: Serratia marcescens
# Test: Antibacterial activity against Serratia marcescens assessed as zone of inhibition by measuring activity index after 24 to 48 hrs by well diffusion method relative to amoxicillin
# Format: functional
row,Substance,Activity index
1,"(2,9-Dimethyl-1,10-Phenanthroline) trimethylstannyl 2-(4-methoxy-2-nitrophenylcarbamo-yl)benzoate",2.61

# Tested on: Pseudomonas aeruginosa
# Test: Antibacterial activity against Pseudomonas aeruginosa assessed as zone of inhibition by measuring activity index after 24 to 48 hrs by well diffusion method relative to tetracycline
# Format: functional, organism-based
row,Substance,Activity index
1,"(2,9-Dimethyl-1,10-Phenanthroline) trimethylstannyl 2-(4-methoxy-2-nitrophenylcarbamo-yl)benzoate",3.84

# Tested on: Pseudomonas aeruginosa
# Test: Antibacterial activity against Pseudomonas aeruginosa assessed as zone of inhibition by measuring activity index after 24 to 48 hrs by well diffusion method relative to penicillin G
# Format: functional, organism-based
row,Substance,Activity index
1,"(2,9-Dimethyl-1,10-Phenanthroline) trimethylstannyl 2-(4-methoxy-2-nitrophenylcarbamo-yl)benzoate",3.84

# Tested on: Pseudomonas aeruginosa
# Test: Antibacterial activity against Pseudomonas aeruginosa assessed as zone of inhibition by measuring activity index after 24 to 48 hrs by well diffusion method relative to amoxicillin
# Format: functional, organism-based
row,Substance,Activity index
1,"(2,9-Dimethyl-1,10-Phenanthroline) trimethylstannyl 2-(4-methoxy-2-nitrophenylcarbamo-yl)benzoate",3.84

# Tested on: Escherichia coli
# Test: Antibacterial activity against Escherichia coli assessed as zone of inhibition by measuring activity index after 24 to 48 hrs by well diffusion method relative to tetracycline
# Format: functional
row,Substance,Activity index
1,"(2,9-Dimethyl-1,10-Phenanthroline) trimethylstannyl 2-(4-methoxy-2-nitrophenylcarbamo-yl)benzoate",0.77

# Tested on: DNA
# Test: Binding affinity to single-stranded DNA (unknown origin) after 10 mins by UV-visible spectrometric method
# Format: nucleic-acid assay
row,Substance,K [×10⁴ /M]
1,"(2,9-Dimethyl-1,10-Phenanthroline) trimethylstannyl 2-(4-methoxy-2-nitrophenylcarbamo-yl)benzoate",2

# Tested on: NCI-H157
# Test: Cytotoxicity against human NCI-H157 cells after 48 hrs by sulforhodamine B assay
# Format: functional, cell-based
row,Substance,Activity
1,"(2,9-Dimethyl-1,10-Phenanthroline) trimethylstannyl 2-(4-methoxy-2-nitrophenylcarbamo-yl)benzoate",Dose-dependent effect

# Tested on: DNA
# Test: Binding affinity to single-stranded DNA (unknown origin) assessed as red shift up to 72 uM after 10 mins by UV-visible spectrometric method
# Format: nucleic-acid assay
row,Substance,Activity [nm]
1,"(2,9-Dimethyl-1,10-Phenanthroline) trimethylstannyl 2-(4-methoxy-2-nitrophenylcarbamo-yl)benzoate",< 3
